Measured values published in US20030040521A1, “Novel pyrimidin-4-enamine as fungicide” (priority 1998, published 2003).

Key:
Venturia Naegualis = assay: Residual-protective action against Venturia inaequalis on apples; assay type: in vivo; conditions: apple cuttings, spray mixture 0.02% a.i., infected 24 hours later, evaluation 12 days after infection
Method: Residual-protective Action Against Venturia Naegualis on Apples
Apple cuttings with fresh shoots 10 to 20 cm long are sprayed to drip point with a spray mixture (0.02% a.i.) prepared from a wettable powder formulation of the test compound. The plants are infected 24 hours later with a conidia suspension of the fungus. The plants are then incubated for 5 days at 90 to 100% relative humidity and stood in a greenhouse for a further […] at 20 to 24° C. Evaluation of the fungal infestation is made 12 days after infection. Compounds of Tables 1-4 show good activity, preferably the compounds 1.72, 1.81, 1.152, 1.160, 2.11, 3.6, 4.3, 4.5, 4.6, 4.27, 4.29, 4.30, 4.36, 4.38, 4.39, 4.43, 4.45, 4.62, 4.80 and 4.111.

[1] = tested on: Colletotrichum Lagenarium; assay: Action against Colletotrichum lagenarium on cucumbers; assay type: in vivo; conditions: cucumber plants, spray mixture 0.002%, infected 2 days later, evaluation 8 days after infection
Method: Action Against Colletotrichum Lagenarium on Cucumbers After a growth period of 2 weeks, cucumber plants are sprayed with an aqueous spray mixture (concentration 0.002%) prepared from a wettable powder formulation of the test compound and infected 2 days later with a spore suspension (1.5×10^5 spores/ml) of the fungus and incubated for 36 hours at 23° C. and high humidity. Incubation is then continued at normal humidity and c. 22° C. Evaluation of the fungal infestation is made 8 days after infection.

SMILES	melting point [°C]	residual-protective activity against Venturia on apples (fungal infestation) (Venturia Naegualis)	activity against Colletotrichum lagenarium (fungal infestation) [1]
CCCCc1nc2ccc(Cl)cc2c(=NC)n1CCC [Compound 1.72]	58 to 60	good activity	good to excellent activity
CCCOC1=Nc2ccc(Cl)cc2C(=CN)N1CCC [Compound 1.74, (6-chloro-2-propoxy-3-propyl-3H-quinazolin-4-ylidene)methylamine]	53 to 55	–	–
CCCCc1nc2ccc(Br)cc2c(=NC)n1CCC [Compound 1.81]	61 to 64	good activity	good to excellent activity
CCCN=c1c2cc(Cl)ccc2nc(OCCC)n1CCC [Compound 1.152, (6-Chloro-2-propoxy-3-propyl-3H-quinazoline-4-ylidene)propylamine]	50 to 51	good activity	good to excellent activity
CCCCN=c1c2cc(Cl)ccc2nc(OCCC)n1CCCC [Compound 1.160]	–	good activity	good to excellent activity
CCCOc1nc2ncc(Br)cc2c(=N)n1CCC [Compound 2.11]	–	good activity	good to excellent activity
CCCOc1nc2c(Br)csc2c(=NC)n1CCC [Compound 3.6]	–	good activity	good to excellent activity
CCCCc1nc2sccc2c(=N)n1CCC [Compound 4.3]	–	good activity	good to excellent activity
CCCOc1nc2sccc2c(=N)n1CCC [Compound 4.5]	61 to 63	good activity	good to excellent activity
CCCCn1c(OCCC)nc2sccc2c1=N [Compound 4.6]	–	good activity	good to excellent activity
CCCCc1nc2sc(Cl)cc2c(=NC)n1CCC [Compound 4.27, (2-Butyl-6-chloro-3-propyl-3H-thieno [2,3-d]pyrimidine-4-ylidene)methylamine]	–	good activity	good to excellent activity
CCCCn1c(OCCC)nc2sc(Cl)cc2c1=NC [Compound 4.30]	–	good activity	good to excellent activity
CCCOc1nc2sc(Br)cc2c(=NC)n1CCC [Compound 4.38, (6-Bromo-3-propyl-2-propoxy-3H-thieno[2,3-d]pyrimidine-4-ylidene)methylamine]	–	good activity	good to excellent activity
CCCCn1c(OCCC)nc2sc(Br)cc2c1=NC [Compound 4.39]	–	good activity	good to excellent activity
CCCCc1nc2sc(Cl)cc2c(=NCC)n1CCC [Compound 4.43]	–	good activity	good to excellent activity
CCCOc1nc2sc(Cl)cc2c(=NCC)n1CCC [Compound 4.45]	–	good activity	good to excellent activity
C=CCN=c1c2cc(Cl)sc2nc(OCCC)n1CCC [Compound 4.62]	–	good activity	good to excellent activity
C#CCN=c1c2cc(Cl)sc2nc(OCCC)n1CCC [Compound 4.80]	–	good activity	good to excellent activity
CCCOc1nc2sc(Cl)cc2c(=NCl)n1CCC [Compound 4.111]	–	good activity	good to excellent activity
CCCCc1nc2sc(Cl)cc2c(=NC(=O)OC)n1CCCC [Compound 4.119, (6-chloro-2-butyl-3-butyl-3H-thieno[2,3-d]pyrimidine-4-ylidene)carbamic acid methylester]	103 to 104	–	–
CCCOc1nc2sc(Cl)cc2c(=NC(C)=O)n1CCC [Compound 4.137, N-(6-chloro-2-propoxy-3-propyl-3H-thieno[2,3-d]pyrimidine-4-ylidene)acetamide]	101 to 103	–	–
CCCCc1nc2sc(Cl)cc2c(=NC(C)=O)n1CCC [Compound 4.139, N-(6-chloro-2-butyl-3-propyl-3H-thieno[2,3-d]pyrimidine-4-ylidene)acetamide]	98 to 99	–	–
